Test results from PubChem BioAssay AID1919007 (Molecular Pharmacology Branch, DTP, NCI, 2023).

Tested on: A498 complex spheroids with HUVEC/MSC, growth
Experiment: Anticancer human tumor A498 cell line growth inhibition [AhR];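 note: seven day exposure starting three days after spheroid seeding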;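 for viability, T/C: luminescence signal used as a surrogate for viable cells; luminescence viability scaled so 100% equals DMSO vehicle wells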
Conditions: for IC50: curve of first compound; for viability, T/C: stronger effect = lower value
Outline: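 Agents were dosed in half-log steps down from roughly clinical Cmax, or from 10 microM where Cmax was unknown, alone and with AhR antagonists. Read-out: percent test/control growth of tumor spheroids containing HUVEC and MSC stromal cells.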

[1] = second compound 0.1 µM, first compound 0.0316 µM
[2] = second compound 0.1 µM, first compound 0.1 µM
[3] = second compound 0.1 µM, first compound 0.316 µM
[4] = second compound 0.1 µM, first compound 1 µM
[5] = second compound 0.1 µM, first compound 3.16 µM
[6] = second compound 0.1 µM, first compound 10 µM
[7] = second compound 0.316 µM, first compound 0.0316 µM
[8] = second compound 0.316 µM, first compound 0.1 µM
[9] = second compound 0.316 µM, first compound 0.316 µM
[10] = second compound 0.316 µM, first compound 1 µM
[11] = second compound 0.316 µM, first compound 3.16 µM
[12] = second compound 0.316 µM, first compound 10 µM
[13] = second compound 1 µM, first compound 0.0316 µM
[14] = second compound 1 µM, first compound 0.1 µM
[15] = second compound 1 µM, first compound 0.316 µM
[16] = second compound 1 µM, first compound 1 µM
[17] = second compound 1 µM, first compound 3.16 µM
[18] = second compound 1 µM, first compound 10 µM
[19] = second compound 3.16 µM, first compound 0.0316 µM
[20] = second compound 3.16 µM, first compound 0.1 µM
[21] = second compound 3.16 µM, first compound 0.316 µM
[22] = second compound 3.16 µM, first compound 1 µM
[23] = second compound 3.16 µM, first compound 3.16 µM
[24] = second compound 3.16 µM, first compound 10 µM
[25] = second compound 10 µM, first compound 0.0316 µM
[26] = second compound 10 µM, first compound 0.1 µM
[27] = second compound 10 µM, first compound 0.316 µM
[28] = second compound 10 µM, first compound 1 µM
[29] = second compound 10 µM, first compound 3.16 µM
[30] = second compound 10 µM, first compound 10 µM

## CCc1c2c(nc3ccc(O)cc13)-c1cc3c(c(=O)n1C2)COC(=O)[C@]3(O)CC + Cc1cncc(-c2nc(NCCc3c[nH]c4ccccc34)c3ncn(C(C)C)c3n2)c1
Second compound 0.1 µM
  IC50: 32.8 nM
Second compound 0.316 µM
  IC50: 33.7 nM
Second compound 1 µM
  IC50: 23.6 nM
Second compound 3.16 µM
  IC50: 14 nM
Second compound 10 µM
  IC50: < 0.949 nM
Second compound 0.1 µM, first compound 0.000949 µM
  viability, T/C: 78.1%
Second compound 0.1 µM, first compound 0.003 µM
  viability, T/C: 81.4%
Second compound 0.1 µM, first compound 0.00949 µM
  viability, T/C: 70.2%
Second compound 0.1 µM, first compound 0.03 µM
  viability, T/C: 51%
Second compound 0.1 µM, first compound 0.0949 µM
  viability, T/C: 39.1%
Second compound 0.1 µM, first compound 0.3 µM
  viability, T/C: 35.3%
Second compound 0.316 µM, first compound 0.000949 µM
  viability, T/C: 85.7%
Second compound 0.316 µM, first compound 0.003 µM
  viability, T/C: 76%
Second compound 0.316 µM, first compound 0.00949 µM
  viability, T/C: 67.1%
Second compound 0.316 µM, first compound 0.03 µM
  viability, T/C: 52.7%
Second compound 0.316 µM, first compound 0.0949 µM
  viability, T/C: 36.7%
Second compound 0.316 µM, first compound 0.3 µM
  viability, T/C: 35.2%
Second compound 1 µM, first compound 0.000949 µM
  viability, T/C: 77.1%
Second compound 1 µM, first compound 0.003 µM
  viability, T/C: 72.8%
Second compound 1 µM, first compound 0.00949 µM
  viability, T/C: 66.8%
Second compound 1 µM, first compound 0.03 µM
  viability, T/C: 45.4%
Second compound 1 µM, first compound 0.0949 µM
  viability, T/C: 32.4%
Second compound 1 µM, first compound 0.3 µM
  viability, T/C: 29.1%
Second compound 3.16 µM, first compound 0.000949 µM
  viability, T/C: 50.7%
Second compound 3.16 µM, first compound 0.003 µM
  viability, T/C: 53.5%
Second compound 3.16 µM, first compound 0.00949 µM
  viability, T/C: 58.1%
Second compound 3.16 µM, first compound 0.03 µM
  viability, T/C: 42%
Second compound 3.16 µM, first compound 0.0949 µM
  viability, T/C: 29.1%
Second compound 3.16 µM, first compound 0.3 µM
  viability, T/C: 26.3%
Second compound 10 µM, first compound 0.000949 µM
  viability, T/C: 5.42%
Second compound 10 µM, first compound 0.003 µM
  viability, T/C: 4.3%
Second compound 10 µM, first compound 0.00949 µM
  viability, T/C: 6.41%
Second compound 10 µM, first compound 0.03 µM
  viability, T/C: 7.12%
Second compound 10 µM, first compound 0.0949 µM
  viability, T/C: 5.73%
Second compound 10 µM, first compound 0.3 µM
  viability, T/C: 4.65%

## Nc1ccccc1NC(=O)c1ccc(CNC(=O)OCc2cccnc2)cc1 + Cc1cncc(-c2nc(NCCc3c[nH]c4ccccc34)c3ncn(C(C)C)c3n2)c1
Second compound 0.1 µM
  IC50: 1220 nM
Second compound 0.316 µM
  IC50: 1260 nM
Second compound 1 µM
  IC50: 1150 nM
Second compound 3.16 µM
  IC50: 221 nM
Second compound 10 µM
  IC50: < 31.6 nM
[1]
  viability, T/C: 82.6%
[2]
  viability, T/C: 79.7%
[3]
  viability, T/C: 70.5%
[4]
  viability, T/C: 57.8%
[5]
  viability, T/C: 23%
[6]
  viability, T/C: 2.08%
[7]
  viability, T/C: 83.6%
[8]
  viability, T/C: 84%
[9]
  viability, T/C: 84%
[10]
  viability, T/C: 53.7%
[11]
  viability, T/C: 24%
[12]
  viability, T/C: 1.77%
[13]
  viability, T/C: 83.8%
[14]
  viability, T/C: 78.5%
[15]
  viability, T/C: 72.8%
[16]
  viability, T/C: 56.1%
[17]
  viability, T/C: 18.1%
[18]
  viability, T/C: 2.18%
[19]
  viability, T/C: 50.4%
[20]
  viability, T/C: 49.9%
[21]
  viability, T/C: 51.5%
[22]
  viability, T/C: 41.2%
[23]
  viability, T/C: 16.9%
[24]
  viability, T/C: 1.1%
[25]
  viability, T/C: 3.86%
[26]
  viability, T/C: 3.69%
[27]
  viability, T/C: 2.11%
[28]
  viability, T/C: 1.29%
[29]
  viability, T/C: 0.5%
[30]
  viability, T/C: 0.86%

## O=C(c1cc(Cc2n[nH]c(=O)c3ccccc23)ccc1F)N1CCN(C(=O)C2CC2)CC1 + Cc1cncc(-c2nc(NCCc3c[nH]c4ccccc34)c3ncn(C(C)C)c3n2)c1
Second compound 0.1 µM
  IC50: > 10000 nM
Second compound 0.316 µM
  IC50: > 10000 nM
Second compound 1 µM
  IC50: > 10000 nM
Second compound 3.16 µM
  IC50: > 10000 nM
Second compound 10 µM
  IC50: < 31.6 nM
[1]
  viability, T/C: 96.9%
[2]
  viability, T/C: 93.8%
[3]
  viability, T/C: 89.2%
[4]
  viability, T/C: 88.5%
[5]
  viability, T/C: 89.2%
[6]
  viability, T/C: 87.3%
[7]
  viability, T/C: 102%
[8]
  viability, T/C: 101%
[9]
  viability, T/C: 97.9%
[10]
  viability, T/C: 94.7%
[11]
  viability, T/C: 93.8%
[12]
  viability, T/C: 86%
[13]
  viability, T/C: 92.8%
[14]
  viability, T/C: 89.4%
[15]
  viability, T/C: 93.8%
[16]
  viability, T/C: 88.8%
[17]
  viability, T/C: 84%
[18]
  viability, T/C: 86%
[19]
  viability, T/C: 56.3%
[20]
  viability, T/C: 62.5%
[21]
  viability, T/C: 59.8%
[22]
  viability, T/C: 58.2%
[23]
  viability, T/C: 54.3%
[24]
  viability, T/C: 57.7%
[25]
  viability, T/C: 4.54%
[26]
  viability, T/C: 4.29%
[27]
  viability, T/C: 4.31%
[28]
  viability, T/C: 4.01%
[29]
  viability, T/C: 4.31%
[30]
  viability, T/C: 6.37%
